This note sets out measurements from patent US20260055107A1, “SERIES OF NITROGEN-CONTAINING BRIDGED HETEROCYCLIC COMPOUNDS AND PREPARATION METHOD THEREFOR” (CMS RESEARCH & DEVELOPMENT PTE. LTD., priority 2022, published 2026).

The nature of data set [1]: Plasma protein binding rate test (equilibrium dialysis), human. In kind it is in vitro ADME. Particulars: 2 μM, equilibrium dialysis 37° C. 4 hours. As to the method:
(§1) Experimental purpose: To evaluate the protein binding rate of the compounds of the present disclosure in the plasma of CD-1 mice, SD rats, beagle dogs, cynomolgus monkeys and humans using equilibrium dialysis.
(§2) The test compounds were diluted with dialysis buffer into the plasma of the above five species to prepare samples with a final concentration of 2 μM. The samples were then added to a 96-well equilibrium dialysis device and dialyzed using phosphate buffered saline solution at 37° C. for 4 hours. Warfarin was used as a control compound in the experiment. The concentration of the test compounds and warfarin in the plasma and buffer was determined using LC-MS/MS. The free fraction of the compound was calculated by the following formula: PPB_Unbound (%)=100*FC/TC, where FC is the concentration of the compound at the buffer end of the dialysis plate; TC is the concentration of the compound at the plasma end of the dialysis plate; To is the concentration of the compound in the plasma sample at time zero.
(Equilibrium dialysis compares concentrations on both sides of a semipermeable membrane.)

The nature of data set [2]: Plasma protein binding rate test (equilibrium dialysis), rat. It is filed as in vitro ADME, SD rats. Particulars: 2 μM, equilibrium dialysis 37° C. 4 hours, SD rat plasma. As to the method:
as §1, §2

Data set [3] can be described thus: Pharmacokinetic study in rats. It is filed as in vivo, Male SD rats. Particulars: rat. As to the method:
Male SD rats (6 to 8 weeks old, weighing 200 to 300 g) were selected.
Injection administration (IV) was carried out at a dose of 1 mpk and a concentration of 0.20 mg/mL with a vehicle of 20% PEG400/10% solutol/70% water. Oral administration (PO) was carried out at a dose of 10 mpk and a concentration of 1 mg/mL with a vehicle of 20% PEG400/10% solutol/70% water.
Sample collection: 0.03 mL of blood samples were collected by puncture of the saphenous vein in experimental animals at each time point, and the actual blood collection time was recorded.
All blood samples were added to commercial 1.5 mL EDTA-K2 anticoagulant tubes. After blood sample collection, DDV was added into the plasma matrix as a stabilizer, wherein the ratio of plasma to Dichlorvos (DDV) solution was 40:1. The DDV solution was a 40 mM DDV solution in acetonitrile/water (1:1). Within half an hour, the mixture was centrifuged at 4° C. and 3000 g for 10 minutes. The supernatant plasma was aspirated, quickly placed in dry ice and stored in a −80° C. refrigerator for LC-MS/MS analysis.
A non-compartmental model in Phoenix WinNonlin 6.3 pharmacokinetic software was used to process the plasma concentration data. The pharmacokinetic parameters were calculated using the linear-log trapezoidal method. C0: concentration needed immediately after intravenous injection; Cmax: the highest plasma drug concentration after administration; Tmax: time needed to reach drug peak concentration after administration; T1/2: time needed for plasma drug concentration to decrease by half; Vdss: apparent volume of distribution, refers to the proportional constant between the amount of drug in the body and the plasma drug concentration when the drug reaches dynamic equilibrium in the body. Cl: clearance rate, refers to the apparent volume of distribution of the drug cleared from the body per unit time; AUC0-last: area under the drug time curve, refers to the area surrounded by the plasma drug concentration curve against the time axis; F: bioavailability.

The target in data set [4] is human complement Factor B protein (Homo sapiens (Human), UniProt P00751). Kind of data set: Complement human Factor B protein binding test (SPR method). Particulars: Biacore 8K, 1:1 Binding Kinetics Model. As to the method: Experimental purpose: To detect the kinetic constants and affinity of the binding between the test compounds and human complement Factor B using the SPR method.
1-Ethyl-3-(3-dimethylaminopropyl) carbodiimide hydrochloride (EDC) and N-hydroxysulfosuccinimide sodium salt (NHS) were mixed in a 1:1 ratio, and complement Factor B was diluted to 20 μg/mL in acetic acid solution with a pH of 5.5. Using a biomacromolecule interaction analyzer Biacore 8K, the programmed settings were set to add the EDC/NHS, the FB protein solution and the 1 M ethanolamine-hydrochloric acid solution to the detection plate. The detection plate was placed in the machine detection chamber, and the EDC/NHS mixture, the complement Factor B protein solution and the 1 M ethanolamine-hydrochloric acid solution were sequentially injected onto the surface of the CM5 chip according to the procedure for chip activation, ligand coupling and deactivation. The flow cell 1 of each channel was used as a reference channel for surface activation and deactivation only, without injection of complement Factor B protein solution. All sample stock solutions were diluted with running buffer (PBST), and all samples were serially diluted 2 times in duplicate for 6 points. The prepared sample was transferred to the detection plate according to the program settings and the detection plate was placed in the sample chamber of Biacore 8K. The detection program was run, and the samples were injected into each channel of the chip sequentially according to the program, with a binding time of 120 s, a dissociation time of 600 s and a flow rate of 30 μL/min. The data were analyzed using Biacore Insight Evaluation Software: The data were fitted using a 1:1 Binding Kinetics Model to obtain the binding rate constant (kon), dissociation rate constant (koff) and dissociation equilibrium constant (KD) for binding of each test sample to complement Factor B protein.
On the technique in general: SPR reads the build-up and loss of mass on a sensor chip optically.

As usually defined, the Vdss is the apparent volume that relates the amount in the body to the concentration in plasma or blood. One may read the Cmax as the highest concentration seen after dosing. As usually defined, the Tmax is the time at which the peak concentration occurs. The Kd is the concentration at which binding is half-saturated. High values mean lower affinity, low ones higher affinity.

A value given as a limit tells only on which side of the number the result lay.

Chain of human complement Factor B protein (P00751 26-764): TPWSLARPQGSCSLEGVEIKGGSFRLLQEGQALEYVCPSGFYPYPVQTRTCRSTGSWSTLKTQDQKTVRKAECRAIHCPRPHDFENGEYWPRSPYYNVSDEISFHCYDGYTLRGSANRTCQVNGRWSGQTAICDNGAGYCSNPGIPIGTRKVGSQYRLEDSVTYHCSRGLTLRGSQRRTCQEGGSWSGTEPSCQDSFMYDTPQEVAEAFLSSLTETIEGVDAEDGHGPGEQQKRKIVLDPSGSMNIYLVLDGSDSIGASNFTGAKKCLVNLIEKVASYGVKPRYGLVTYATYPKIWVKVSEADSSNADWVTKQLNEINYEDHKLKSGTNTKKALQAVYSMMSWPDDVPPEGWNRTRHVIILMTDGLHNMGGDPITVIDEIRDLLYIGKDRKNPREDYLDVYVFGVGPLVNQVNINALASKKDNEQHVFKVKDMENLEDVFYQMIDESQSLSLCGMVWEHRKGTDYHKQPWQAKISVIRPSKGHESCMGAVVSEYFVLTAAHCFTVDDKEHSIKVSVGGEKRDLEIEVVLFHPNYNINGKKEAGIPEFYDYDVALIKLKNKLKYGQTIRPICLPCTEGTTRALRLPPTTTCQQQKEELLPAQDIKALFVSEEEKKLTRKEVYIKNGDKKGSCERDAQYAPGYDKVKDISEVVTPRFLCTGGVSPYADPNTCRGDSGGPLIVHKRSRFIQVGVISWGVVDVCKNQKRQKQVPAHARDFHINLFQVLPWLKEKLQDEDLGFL

On to `COc1cc(C)c2[nH]ccc2c1CN1C2CCC1(c1ccc(C(=O)O)cc1)CC(C1CC1)C2` (single isomer, unassigned) [Compound 3B], for which the “Plasma protein binding (PPB) unbound, Human (H)” value in data set [1] is reported as 15.2%. Also, in data set [2], the “Plasma protein binding (PPB) unbound, Rat (R)” value was found to be 14.1%. In data set [3] (IV 1 mpk), this compound showed an AUC0-last of 10.573 µM·h, a C0 of 6.2 µM, a Cl of 3.5 mL/min/kg and a T1/2 of 2.06 h. The same compound returned a Vdss in data set [3] (IV 1 mpk) of 0.53 L/kg. In addition, in data set [3] (PO 10 mpk), the AUC0-last was 33.029 µM·h, the Cmax came out at 7.83 µM, the T1/2 stood at 9.90 h and the Tmax was 0.50 h. Besides, the F in data set [3] (PO 10 mpk vs IV 1 mpk) is 31.2%. Moreover, the Kd in data set [4] was below 0.1 µM.
